Molecules are shown by their SMILES. Counter-ions that a name gives are not always drawn. Like-named read-outs stand apart in the source and are kept apart here.

Data set [1] concerns hexobarbital-treated ddY Strain male mice. As to the kind of experiment: Barbiturate potentiation (duration of loss of righting reflex due to hexobarbital). Type of data set: in vivo, mouse (ddY Strain). Conditions: 0.5 h, read-out: Barbiturate potentiation (ratio with control groups). The method, then:
ddY Strain male mice (4 - 5 weeks old, body weight 23 - 28 g) in groups of 5 mice each were orally treated with 100 mg/kg of samples and 30 minutes after the oral administration the mice were intraperitoneally treated with 100 mg/kg of hexobarbital. Duration of loss of righting reflex due to hexobarbital was determined and barbiturate potentiation ratios with control groups were calculated. Imipramine, desipramine and diazepam were used as control drugs.

For data set [2] the test system is unchanged. Described as above. The format is in vivo, mouse (ddY Strain). Conditions: Mus musculus, po, 0.5 h, read-out: Barbiturate potentiation (ratio with control groups).
Another data set can be described thus: Acute toxicity, mouse. Type of data set: in vivo. The note with it: in vivo, po. The text has this: (§1) ddY Strain mice and Wistar-Imamichi strain rats were used to inspect acute toxicity and subacute toxicity (30 days; oral administration) of a compound of the formula [I].
The test system of the next data set is ddY Strain mice. As to the kind of experiment: Acute toxicity, mouse. The format is in vivo. Conditions: p.o.
Source text: as §1

The next data set in a line: Acute toxicity, rat. The note with it: in vivo, po.
Source text: as §1

The subject of data set [3] is Wistar-Imamichi strain rats. The data set can be described thus: Subacute toxicity (30 days; oral administration), rat. The format is in vivo, rat (Wistar-Imamichi strain).
Source text: as §1

Setting [4] is: mouse, 100 mg/kg oral, 30 minutes before 100 mg/kg i.p. hexobarbital, loss of righting reflex duration.
The mark [5] stands for this setting: 30 days oral, at a dose of 50 mg/kg.

With `CNCCCn1nc(-c2ccccc2)c2cc(C)ccc21` [Example 29, 1-N-monomethylaminopropyl-3-phenyl-5-methylindazole hydrochloride], the response vs control in vivo at 100 mg/kg in data set [1] (setting [4]) was found to be 170%.

Take `CCN(CC)CCn1nc(-c2ccccc2)c2cc(Cl)ccc21` [Example 4, 1-diethylaminoethyl-3-phenyl-5-chloroindazole hydrochloride]: the response vs control in vivo at 100 mg/kg in data set [1] (setting [4]) turned out to be 120%. Take `Cc1ccc2c(c1)c(-c1ccccc1)nn2CN1CCCC1` [Example 20, 1-pyrrolidinomethyl-3-phenyl-5-methylindazole hydrochloride]: the response vs control in vivo at 100 mg/kg in data set [1] (setting [4]) was found to be 160%. For the compound `Cc1ccc2c(c1)c(-c1ccccc1)nn2CCCN` [Example 34, 1-aminopropyl-3-phenyl-5-methylindazole], the response vs control in vivo at 100 mg/kg in data set [1] (setting [4]) came to 250%.

Regarding `Clc1ccc2c(c1)c(-c1ccccc1)nn2CN1CCOCC1` [Example 19, 1-morpholinomethyl-3-phenyl-5-chloroindazole], in data set [1] (setting [4]), the response vs control in vivo at 100 mg/kg is 120%. Take `CN(C)CCCn1nc(-c2ccccc2)c2ccccc21` [Example 7, 1-dimethylaminopropyl-3-phenylindazole hydrochloride]: the response vs control in vivo at 100 mg/kg in data set [1] (setting [4]) is 190%.

Consider `c1ccc(-c2nn(CCCN3CCCCC3)c3ccccc23)cc1` [Example 11, 1-piperidinopropyl-3-phenylindazole hydrochloride], for which the response vs control in vivo at 100 mg/kg in data set [1] (setting [4]) was determined as 130%. Same read-out and setting: to `CCN(CC)CCn1nc(-c2ccccc2)c2ccccc21` [Example 6, 1-diethylaminoethyl-3-phenylindazole hydrochloride] belongs 290%; to `Cc1ccc2c(c1)c(-c1ccccc1)nn2CCCN1CCCCC1` [Example 12, 1-piperidinopropyl-3-phenyl-5-methylindazole hydrochloride], 100%. With `CN1C(=O)CN=C(c2ccccc2)c2cc(Cl)ccc21` [diazepam], the response vs control in vivo at 5 mg/kg in data set [2] amounted to 230%. As for `O=C1c2ccccc2C(=O)N1CCCn1nc(-c2ccccc2)c2cc(Cl)ccc21` [Example 25, 1-phthalimidopropyl-3-phenyl-5-chloroindazole], the response vs control in vivo at 100 mg/kg in data set [1] (setting [4]) came out at 110%. On to `Cc1ccc2c(c1)c(-c1ccccc1)nn2CCCN(C)C` [Example 10, 1-dimethylaminopropyl-3-phenyl-5-methylindazole], for which the response vs control in vivo at 100 mg/kg in data set [1] (setting [4]) amounted to 100%. In addition, the median lethal dose (LD50) – broadly, the dose expected to kill half of the subjects tested – in “Acute toxicity, mouse” was 580 mg/kg; with ddY Strain mice, 660 mg/kg; in the data set “Acute toxicity, rat” it was 3000 to 5000 mg/kg. In data set [3] (30 days oral, at a dose of 100 mg/kg), the “Subacute toxicity: fatality” value was “not fatal”. For the same compound, in data set [3] (in vivo, po, 100 mg/kg), the “Subacute toxicity: symptoms” value was “no abnormal symptom”. Regarding `c1ccc(-c2nn(CN3CCOCC3)c3ccccc23)cc1` [Example 23, 1-morpholinomethyl-3-phenylindazole], the response vs control in vivo at 100 mg/kg in data set [1] (setting [4]) is 130%.

As for `CN(C)CCCn1nc(-c2ccccc2)c2cc(Cl)ccc21` [Example 8, 1-dimethylaminopropyl-3-phenyl-5-chloroindazole hydrochloride], the response vs control in vivo at 100 mg/kg in data set [1] (setting [4]) came to 130%. With `CNCCCN1c2ccccc2CCc2ccccc21` [desipramine, reference compound], the response vs control in vivo at 100 mg/kg in data set [1] (Mus musculus, po) was determined as 150%.

As to `CN(C)CCn1nc(-c2ccccc2)c2cc(Cl)ccc21` [Example 2, 1-dimethylaminoethyl-3-phenyl-5-chloroindazole hydrochloride], in data set [1] (setting [4]), the response vs control in vivo at 100 mg/kg is 150%. Turning to `Cc1ccc2c(c1)c(-c1ccccc1)nn2CCCN1CCOCC1` [Example 15, 1-morpholinopropyl-3-phenyl-5-methylindazole hydrochloride], in data set [1] (setting [4]), the response vs control in vivo at 100 mg/kg was 140%. Consider `Cc1ccc2c(c1)c(-c1ccccc1)nn2CCCN1CCN(C)CC1` [Example 17, 1-N-methylpiperazinopropyl-3-phenyl-5-methylindazole hydrochloride], for which the response vs control in vivo at 100 mg/kg in data set [1] (setting [4]) was 100%.

For `Cc1ccc2c(c1)c(-c1ccccc1)nn2CCN(C)C` [Example 3, 1-dimethylaminoethyl-3-phenyl-5-methylindazole hydrochloride], the response vs control in vivo at 100 mg/kg in data set [1] (setting [4]) was 150%. Turning to `CN(C)CCCN1c2ccccc2CCc2ccccc21` [imipramine], the response vs control in vivo at 100 mg/kg in data set [1] (Mus musculus, po) is 130%. Also, in data set [3] (setting [5]), the “Subacute toxicity: blood urine nitrogen” value is recorded as “reduced”, the “Subacute toxicity: fatality” value was “not fatal” and the “Subacute toxicity: hemoglobin” value is given as “reduced”. `Clc1ccc2c(c1)c(-c1ccccc1)nn2CCN1CCOCC1` [Example 14, 1-morpholinoethyl-3-phenyl-5-chloroindazole hydrochloride]: in data set [1] (setting [4]), the response vs control in vivo at 100 mg/kg worked out at 170%. Consider `CN(C)CCn1nc(-c2ccccc2)c2ccccc21` [Example 1, 1-dimethylaminoethyl-3-phenylindazole hydrochloride], for which, in data set [1] (setting [4]), the response vs control in vivo at 100 mg/kg turned out to be 300%.

Source of the values: US3994890A, “1-Aminoalkyl, 3-phenyl indazoles” (Chugai Seiyaku Kabushiki Kaisha, priority 1974, dated 1976).
